Measured values reported in publication PMC12457078, “Inhibition of soluble epoxide hydrolase in endotoxin induced pig lung injury” (Frontiers in Pharmacology, 2025).
Several values for one entry are separate records, joined by “and”; a condition that tells them apart may be missing. Identical values can stand only once.

Tested on: sEH
Experiment: oxylipin analysis, epoxide/diol ratios (target engagement)
Assay type: in vivo, pig
Parameters: 14,15-DiHETE: unit not given beside the values; 12,13-DiHOME / 9,10-DiHODE / 11,12-DiHETrE / 14,15-DiHETrE / 10,11-DiHDPE / 19,20-DiHDPE / 13-HODE / 5-HETE / 11-HETE / 12-HETE / 5-HEPE / 9(10)-EpOME / 12(13)-EpOME / EKODE / 11(12)-EpETE: unit not given here
Procedure: All animals were monitored with pulse oximetry, heart rate, ECG, systemic arterial blood pressure (ABP), pulmonary arterial pressure (PAP), central venous pressure (CVP) temperature, tidal volumes, respiratory rate and end tidal carbon dioxide. At baseline, and at 3 h, 6 h and at the end of the experiment, pulmonary capillary wedge pressure (PCWP) was measured together with arterial and venous blood gas analyses, as well as cardiac output calculations. Routine chemistry, including creatinine, bilirubin, glucose, electrolytes were collected at baseline and at the end of the experiment (Vetscan VS2®, Abaxis, Griesheim, Germany). Blood samples for measurement of AEPU plasma concentrations, as well as oxylipins (i.e., EpETrEs and their DiHETrE corresponding diols as well as related compounds with other polyunsaturated fatty acid precursors), were collected at baseline, 6 h and at the end of the experiment.
This meant nine subjects in each group to achieve 90% power of detecting a difference of this size given α = 0.05. Anticipating that not all experiments would reach completion, we used a sample size of 22. The results were analyzed using SPSS Statistics, version 24 (IBM Corp., Armonk, N.Y., United States). Normality was examined with the Shapiro-Wilk test, together with examination of histograms of data. Continuous variables were compared using Student’s t-test or Mann Whitney U test, as appropriate. Categorical variables were compared using Fischer’s exact test. Statistical significance was set at α < 0.05. Oxylipins with at least 80% of observations above limit of detection at both timepoints were included in pairwise comparisons of ratios and fold-change evaluations where observations below limit of detection (LOD) were substituted with 0.5 x LOD.

[1] = animal 22, time 6, sample Schwein38

CCOCCOCCOCCCCCNC(=O)NC12CC3CC(CC(C3)C1)C2 [sEH-i] was tested, and the “8(9)-EpETrE” value [1] was “<LOD”, the “8,9-DiHETE” value [1] was “<LOD” and the “8,9-DiHETrE” value [1] was 0.0757. For the same molecule, the 8-HETE [1] was 0.0546, the “9(10)-EpODE” value [1] was 0.22 and the “9(10)-EpOME” value [1] was 0.65. For the same molecule, the “9,10,13-TriHOME” value [1] was 4.88, the “9,10-DiHODE” value [1] was 0.22 and the “9,10-DiHOME” value [1] was 1.64. The “9,12,13-TriHOME” value [1] was “<LOD”, the 9-HETE [1] was “<LOD” and the 9-HODE [1] was 3.67. The 9-HOTrE [1] was 0.7165, the 9-oxo-ODE [1] was “<LOD” and the “10(11)-EpDPE” value [1] was “<LOD”. For the same molecule, the “10,11-DiHDPE” value [1] was 0.03, the “11(12)-EpETE” value [1] was 0.07931 and the “11(12)-EpETrE” value [1] was 0.0369. The “11,12-DiHETE” value [1] was 0.0372, the “11,12-DiHETrE” value [1] was 0.80 and the 11-HETE [1] was 0.10. For the same molecule, the “12(13)-EpODE” value [1] was 0.32, the “12(13)-EpOME” value [1] was 1.76 and the “12,13-DiHODE” value [1] was 0.31. For the same molecule, the “12,13-DiHOME” value [1] was 3.15, the 12-HEPE [1] was 0.0345 and the 12-HETE [1] was 0.2294. The 12-oxo-ETE [1] was 2.84, the “13(14)-EpDPE” value [1] was “<LOD” and the “13,14-DiHDPE” value [1] was 0.13. For the same molecule, the 13-HODE [1] was 19.79, the 13-HOTrE [1] was 1.01 and the 13-oxo-ODE [1] was “<LOD”. For the same molecule, the “14(15)-EpETE” value [1] was “<LOD”, the “14(15)-EpETrE” value [1] was 0.09 and the “14,15-DiHETrE” value [1] was 1.47. For the same molecule, the “15(16)-EpODE” value [1] was 4.31, the “15,16-DiHODE” value [1] was 14.18 and the 15-HEPE [1] was “<LOD”. It also gave a 15-HETE [1] of 0.27, a 15-HETrE [1] of 0.12 and a 15-oxo-ETE [1] of 0.03. The “16(17)-EpDPE” value [1] was “<LOD”, the “16,17-DiHDPE” value [1] was 0.28 and the “17(18)-EpETE” value [1] was “<LOD”. For the same molecule, the “17,18-DiHETE” value [1] was 1.29, the 17-HDoHE [1] was “<LOD” and the “19(20)-EpDPE” value [1] was “<LOD”. The “19,20-DiHDPE” value [1] was 1.67, the 20-HETE [1] was 0.10 and the EKODE [1] was 0.30. For the same molecule, the LTB4 [1] was “<LOD”, the PGD2 [1] was “<LOD” and the PGE2 [1] was “<LOD”. The PGF2a [1] was 0.18, the “Resolvin D1” value [1] was “<LOD” and the “Resolvin D2” value [1] was “<LOD”. For the same molecule, the TXB2 [1] was 0.45, the “14,15-DiHETE” value (animal 22, time 6, sample Schwein38, high blanks) was 0.2142 and the “5(6)-EpETrE” value (time 0, individual pigs) was “<LOD”. For the same molecule, the “5,6-DiHETrE” value (time 0, individual pigs) was “<LOD”, the 5-HEPE (time 0, individual pigs) was 0.12 and 0.10 and 0.0352 and 0.0647 and 0.04 and the 5-HETE (time 0, individual pigs) was 0.3505 and 0.4442 and 0.2569 and 0.292 and 0.2018. The 5-oxo-ETE (time 0, individual pigs) was “<LOD and 0.13 and 0.12”, the “7(8)-EpDPE” value (time 0, individual pigs) was “<LOD” and the “7,8-DiHDPE” value (time 0, individual pigs) was “<LOD”. The “8(9)-EpETE” value (time 0, individual pigs) was “<LOD”, the “8(9)-EpETrE” value (time 0, individual pigs) was “<LOD” and the “8,9-DiHETE” value (time 0, individual pigs) was “<LOD”. For the same molecule, the “8,9-DiHETrE” value (time 0, individual pigs) was 0.05 and 0.0422 and <LOD and 0.06, the 8-HETE (time 0, individual pigs) was 0.06 and 0.08 and 0.053 and 0.0429 and the “9(10)-EpODE” value (time 0, individual pigs) was 0.38 and 0.25 and <LOD. The “9(10)-EpOME” value (time 0, individual pigs) was 0.98 and 0.51 and 0.65 and 0.99 and 0.62, the “9,10-DiHODE” value (time 0, individual pigs) was 0.22 and 0.21 and 0.10 and 0.16 and 0.12 and the “9,10-DiHOME” value (time 0, individual pigs) was 1.61 and 1.57 and 0.78 and 1.46 and 0.91. For the same molecule, the 9-HETE (time 0, individual pigs) was “<LOD”, the 9-HODE (time 0, individual pigs) was 8.25 and 8.10 and 3.23 and 6.40 and 4.24 and the 9-HOTrE (time 0, individual pigs) was 1.27 and 1.28 and 0.79 and 0.81 and 0.6856. The 9-oxo-ODE (time 0, individual pigs) was “<LOD”, the “10(11)-EpDPE” value (time 0, individual pigs) was “<LOD” and the “10,11-DiHDPE” value (time 0, individual pigs) was “<LOD”. The “11(12)-EpETE” value (time 0, individual pigs) was 0.1253 and 0.08781 and 0.1311 and 0.1265 and 0.1028, the “11(12)-EpETrE” value (time 0, individual pigs) was “<LOD and 0.02 and 0.0347 and 0.03” and the “11,12-DiHETE” value (time 0, individual pigs) was “<LOD and 0.0219”. For the same molecule, the “11,12-DiHETrE” value (time 0, individual pigs) was 0.32 and 0.22 and 0.18 and 0.46 and 0.23, the 11-HETE (time 0, individual pigs) was 0.13 and 0.12 and 0.05 and 0.0453 and the “12(13)-EpODE” value (time 0, individual pigs) was 0.71 and 0.48 and <LOD and 0.61 and 0.44. The “12(13)-EpOME” value (time 0, individual pigs) was 3.24 and 1.63 and 2.31 and 2.28 and 1.75, the “12,13-DiHODE” value (time 0, individual pigs) was 0.45 and 0.48 and 0.25 and 0.29 and the “12,13-DiHOME” value (time 0, individual pigs) was 6.90 and 6.98 and 3.85 and 4.66 and 3.09. For the same molecule, the 12-HEPE (time 0, individual pigs) was 0.04 and <LOD and 0.0173, the 12-HETE (time 0, individual pigs) was 0.1828 and 0.38 and 0.09618 and 0.1256 and 0.03983 and the 12-oxo-ETE (time 0, individual pigs) was “<LOD”. For the same molecule, the “13(14)-EpDPE” value (time 0, individual pigs) was “<LOD”, the “13,14-DiHDPE” value (time 0, individual pigs) was 0.05 and 0.018 and <LOD and 0.06 and 0.0275 and the 13-HODE (time 0, individual pigs) was 29.61 and 29.96 and 13.26 and 18.81 and 12.94.
